Data taken from US20090192192A1, “INHIBITORS OF BIOFILM FORMATION OF GRAM-POSITIVE AND GRAM-NEGATIVE BACTERIA” (priority 2007, published 2009).

Assays:
Assay type in all cases: cell-based
[1] = test system: Staphylococcus aureus U of C#18 (MRSA); assay: MBEC assay, biofilm formation of S. aureus U of C #18 (MRSA); conditions: read-out: S. aureus U of C #18 (MRSA) log R (log reduction); for log reduction at 10 µM: compound concentration 10 μM; for log reduction at 100 µM: compound concentration 100 μM
Description: (§1) The compound to be tested was dissolved in DMSO to obtain a concentration that was 100 times that of the final concentration required (1 mM for the 10 μM assay and 10 mM for the 100 μM assay). 1.5 μL of the above solution was placed into each well of a 96 well plate (final volume in each well=150 μL, final DMSO concentration of 1% (v/v)).
(§2) To grow the organism and form a biofilm, a cryogenic stock of the test organism (at −70° C.) was used. A first sub-culture was streaked out onto TSA (tryptic soy agar), upon which the plate was incubated at 35±2° C. for 24 hours and stored wrapped in parafilm at 4° C. afterwards. From this first sub-culture, a second sub-culture was streaked out onto TSA. The plate was incubated at 35±2° C. for 24 hours. The second sub-culture was used within 24 hours starting from the time it was first removed from incubation. Using the second sub-culture an inoculum in 3 mL sterile water that matches a 0.5 McFarland Standard (1.5×10^8 cells per mL) was created in a glass test tube using a sterile cotton swab. 2.2 mL of this solution was diluted in 22 mL 100% TSB (tryptic soy broth) medium to a cell density of approximately 6.0×10^5 cells per mL. The diluted organism was inverted 3-5 times to achieve uniform mixing of the organism. One sample (100 μl) of the diluted organism was used for an inoculum check by serially diluting and spot plating on TSA.
(§3) To prepare a challenge plate, […] of the diluted organism was added to each well of a 96 well plate except the sterility control wells. The test compounds were added to the wells to make up final concentrations of 10 μM and […] (1.5 μL/well) in the designated location in the test plate. 128.5 μL of 100% universal neutralizer (1% Tween 80 in Cation Adjusted Mueller Hinton Broth, CAMHB) was placed in each of the wells. 130 μL of media was added to the growth control wells. 128.5 μL of media+1.5 μL of DMSO were added to a second set of growth control wells. 150 μL of media was added to the sterility controls. Each sample was run in triplicate. The plate was covered by a lid with a peg per well and wrapped in parafilm and placed on a shaker in a humidified incubator (GeneVac) at 35±+2° C. for 24 hours set at 110 rpm.
(§4) Rinse plate(s) of 0.9% saline (200 μL per well) were prepared in a sterile 96 well microtitre plate. Lid-associated pegs were rinsed in 0.9% saline for approximately 1-2 minutes. The peg lid was transferred to the recovery media (1.0% Tween 80 in CAMHB) then sonicated for 30 minutes to dislodge surviving biofilm. Following sonication, 100 μL from each well of the 96 well plate was placed into the first 12 wells of the first row of a 96 well microtiter plate. 180 μl of 0.9% sterile saline was placed in the remaining rows. A serial dilution (10^0-10^7) was prepared by moving 20 μl down each of the 8 rows. 20 μl from each well was removed and spot plated on a prepared TSA. In the remaining recovery plate, 100 μl of fresh growth media (1.0% Tween 80 in CAMHB) was placed in each well to replace the amount removed. The recovery plate was covered with a regular lid and incubated at 35±2° C. for 24 hours and read visually to confirm antimicrobial activity of the test compounds.
(§5) The compounds of the present disclosure have been tested regarding their efficiency to inhibit biofilm formation of Staphylococcus aureus U of C#18 (MRSA), Staphylococcus aureus 456 (MRSA), Staphylococcus epidermidis RP62A, and Pseudomonas aeruginosa PAO1.

[2] = test system: Staphylococcus aureus 456 (MRSA); assay: MBEC assay, biofilm formation of S. aureus 456 (MRSA); conditions: read-out: S. aureus 456 (MRSA) log R (log reduction); for log reduction at 10 µM: compound concentration 10 μM; for log reduction at 100 µM: compound concentration 100 μM
Description: as §1, §2, §3, §4, §5

[3] = test system: Staphylococcus epidermidis RP62A; assay: MBEC assay, biofilm formation of S. epidermidis RP62A; conditions: read-out: S. epidermidis RP62A log R (log reduction); for log reduction at 10 µM: compound concentration 10 μM; for log reduction at 100 µM: compound concentration 100 μM
Description: as §1, §2, §3, §4, §5

[4] = test system: Pseudomonas aeruginosa PAO1; assay: MBEC assay, biofilm formation of P. aeruginosa PAO1; conditions: for IC50: biofilm formation, read-out: P. aeruginosa PAO1 inhibitory concentration IC50; for inhibition at 100 µM: compound concentration 100 μM
Procedure, shortened: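 Peg-lid biofilms were grown 24 h at 35±2 °C, 110 rpm, from inoculum diluted to ~6.0×10^5 cells per mL in TSB, with compound at 10 μM or 100 μM final (1% DMSO) in 1% Tween 80/CAMHB. Pegs were rinsed, then sonicated 30 min into recovery medium; survivors were spot-plated, and recovery plates were read visually after 24 h; triplicates.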

[5] = test system: Staphylococcus aureus 398 (MRSA); assay: MBEC assay, biofilm formation of S. aureus 398 (MRSA)
Description: as §1
as §2, with “2.2 mL of this solution was diluted in 22 mL 100% TSB (tryptic soy broth) medium to a cell density of approximately 6.0×10^5 cells per mL. The diluted organism was inverted 3-5 times to achieve uniform mixing of the organism. One sample (100 μl) of the diluted organism was used for an inoculum check by serially diluting and spot plating on TSA.” left out
Rinse plate(s) of 0.9% saline (200 μL per well) were prepared in a sterile 96 well microtitre plate. […] The recovery plate was covered with a regular lid and incubated at 35±2° C. for 24 hours and read visually to confirm antimicrobial activity of the test compounds. […]

Row | Structure (SMILES) | log reduction at 10 µM [1] | log reduction at 100 µM [1] | log reduction at 10 µM [2] | log reduction at 100 µM [2] | log reduction at 10 µM [3] | log reduction at 100 µM [3] | IC50 [4] [µM] | S. aureus 398 (MRSA) log R (log reduction) ([5]; compound concentration 10 μM) | S. aureus 398 (MRSA) log R (log reduction) ([5]; compound concentration 100 μM) | inhibition at 100 µM [4] [%] | inhibition at 100 µM ([4]; class symbols) [%]
1 | CCCCCCCCCOCC(=O)Nc1ccnn1C [Example 1, N-(1-methylpyrazol-5-yl)-2-(nonyloxy)acetamide] | 0.4 | 0.77 | 0.26 | 1.18 | 0 | 0 | 27 | – | – | – | –
2 | CCCCCCCCCCCC(=O)N1CCCC(C(=O)N(CC)CC)C1 (centres unmarked) [Example 2, 1-dodecanoyl-N,N-diethylpiperidine-3-carboxamide] | 1.56 | 5.38 | 1.75 | 5.79 | 0 | 3.5 | 12 | – | – | – | –
3 | CCCCCCCCOCCC(=O)Nc1ccc(F)cc1C(F)(F)F [Example 3, N-(4-fluoro-2-(trifluoromethyl)phenyl)-3-(octyloxy)propanamide] | 0.11 | 0.19 | 0.19 | 0.49 | 0 | 0 | 19 | – | – | – | –
4 | CCCCCCCCCC(=O)NC(=O)Nc1ccnn1CC [Example 4, N-(1-ethylpyrazol-5-ylcarbamoyl)decanamide] | 1.13 | 1.49 | 1.14 | 3.28 | 0 | 0.78 | 11 | – | – | – | –
5 | CCCCCCCCOCCC(=O)N(C)c1ccc(F)cc1 [Example 5, N-(4-fluorophenyl)-N-methyl-3-(octyloxy)propanamide] | -0.21 | 1.29 | 0.54 | 1.86 | 0 | 0 | 24 | – | – | – | –
6 | CCCCCCCCCCNC(=O)N(C)c1ccccc1 [Example 6, 3-decyl-1-methyl-1-phenylurea] | 0.72 | 1.08 | 1.61 | 2.3 | 0 | 4.45 | 9 | – | – | – | –
7 | CCCCCCCCCCNC(=O)N(C)[C@@H](C)c1ccccc1 [Example 7, (S)-3-decyl-1-methyl-1-(1-phenylethyl)urea] | 0.84 | 1.12 | 0.53 | 1.26 | 0 | 0 | 4 | – | – | – | –
8 | CCCCCCCCCCNC(=O)Nc1cc(C(C)(C)C)nn1C [Example 8, 1-(3-tert-butyl-1-methylpyrazol-5-yl)-3-decylurea] | 0.26 | 0.8 | 0.42 | 1.04 | 0 | 0 | 3 | – | – | – | –
9 | CCCCCCCCCCCC(=O)Nc1cc(C(C)(C)C)nn1C [Example 9, N-(3-tert-butyl-1-methylpyrazol-5-yl)dodecanamide] | 0.42 | 0.46 | 0.65 | 1.06 | 0 | 0 | 12 | – | – | – | –
10 | CCCCCCCCCCNC(=O)N1CCCC(C(=O)N(CC)CC)C1 (centres unmarked) [Example 10, N^1-decyl-N^3,N^3-diethylpiperidine-1,3-dicarboxamide] | 1.17 | 0.91 | – | – | 1.33 | 1.28 | – | 1.38 | 2.54 | 84 | –
11 | CCCCCCCCCCC(=O)N1CCCC(C(=O)N(CC)CC)C1 (centres unmarked) [Example 11, N,N-diethyl-1-undecanoylpiperidine-3-carboxamide] | 0.84 | 0.88 | – | – | 0.77 | 1.48 | – | – | – | 75 | –
12 | CCCCCCCCCCCCC(=O)N1CCCC(C(=O)N(CC)CC)C1 (centres unmarked) [Example 12, N,N-diethyl-1-tridecanoylpiperidine-3-carboxamide] | 0.08 | 1.57 | – | – | 1.42 | 2.47 | – | – | – | 85 | –
13 | CCCCCCCCCCCC(=O)N1CCC(C(=O)N2CCCC2)C1 (centres unmarked) [Example 149, 1-(3-(pyrrolidine-1-carbonyl)pyrrolidin-1-yl)dodecan-1-one] | – | – | – | – | – | – | – | – | – | – | > 50
14 | CCCCCCCCCCCC(=O)N1CCC(C(=O)N(C(C)C)C(C)C)C1 (centres unmarked) [Example 150, 1-dodecanoyl-N,N-diisopropylpyrrolidine-3-carboxamide] | – | – | – | – | – | – | – | – | – | – | > 50
15 | CCCCCCCCCCCC(=O)N1CCC(C(=O)Nc2ccccc2)C1 (centres unmarked) [Example 151, 1-dodecanoyl-N-phenylpyrrolidine-3-carboxamide] | – | – | – | – | – | – | – | – | – | – | 20 to 50
16 | CCCCCCCCCCCC(=O)N1CCC(C(=O)Nc2ccc(F)cc2)C1 (centres unmarked) [Example 152, 1-dodecanoyl-N-(4-fluorophenyl)pyrrolidine-3-carboxamide] | – | – | – | – | – | – | – | – | – | – | 20 to 50
17 | CCCCCCCCCCCC(=O)N1CCC(C(=O)Nc2cc(C)nn2C)C1 (centres unmarked) [Example 153, N-(1,3-dimethylpyrazol-5-yl)-1-dodecanoylpyrrolidine-3-carboxamide] | – | – | – | – | – | – | – | – | – | – | > 50
18 | CCCCCCCCCCCC(=O)N1CCC(C(=O)Nc2cc(C(C)(C)C)nn2C)C1 (centres unmarked) [Example 154, N-(3-tert-butyl-1-methylpyrazol-5-yl)-1-dodecanoylpyrrolidine-3-carboxamide] | – | – | – | – | – | – | – | – | – | – | 20 to 50
